# Measurements taken from patent publication US7638509B2, “Diene compounds and formulations” (priority 2003, dated 2009).
# Key:
# [1] = tested on: estrogen receptor (ER); experiment: Steroid hormone specificity, ER/ERE-Luc in PC-3 cells; type: cell-based, human; details: PC-3, ER/ERE-Luc, ADEK at 0.01 mM, 0.1 mM and 1.0 mM, 24 h
# Protocol: Cell Culture, Transfection, and Reporter Gene Assay. The human prostate cancer cell lines, LNCaP, PC-3, and DU145, and non-prostate cancer cell line COS-1 were maintained in RPMI or Dulbecco's modified Eagle's medium (DMEM) (Life Technologies) supplemented with 10% fetal bovine serum (FBS). Transfections and luciferase (Luc) assays were performed as previously described (Miyamoto, H., Yeh, S., Wilding, G. & Chang, C. (1998) Proc. Natl. Acad. Sci. USA 95, 7379-7384; Miyamoto, H., Rahman, M., Takatera, H., Kang, H.-Y., Yeh, S., Chang, H.-C., Nishimura, K., Fujimoto, N. & Chang, C. (2002) J. Biol. Chem. 277, 4609-4617). Briefly, cells seeded to reach a density of 50-60% confluence in 12 well tissue culture plates were transfected with 1.5 μg of DNA according to “SuperFect transfection” instructions (Qiagen). […] The Luc activity was determined using a Dual-Luciferase Reporter Assay System (Promega) and luminometer.
# Steroid Hormone Specificity of ADEK. To characterize the steroid hormone activity of ADEK, PC-3 cells were transfected with steroid receptor/reporter (progesterone receptor (PR)/MMTV-Luc, glucocorticoid receptor (GR)/MMTV-Luc, or estrogen receptor (ER)/ERE-Luc) and analyzed for expression of the Luc reporter gene. […] The Luc activity was measured relative to that of ETOH treatment (set as 1-fold). […]
# [2] = target: T1, wild-type AR (Homo sapiens, UniProt P10275); experiment: Adiol-induced AR transcription, MMTV-Luc in PC-3 cells with pSG5-AR; type: cell-based; parameters: expressed in transfected cells; host or cells: PC-3; details: PC-3, 2.5 nM Adiol, compound at 1 μM
# T1 sequence (P10275 1-920): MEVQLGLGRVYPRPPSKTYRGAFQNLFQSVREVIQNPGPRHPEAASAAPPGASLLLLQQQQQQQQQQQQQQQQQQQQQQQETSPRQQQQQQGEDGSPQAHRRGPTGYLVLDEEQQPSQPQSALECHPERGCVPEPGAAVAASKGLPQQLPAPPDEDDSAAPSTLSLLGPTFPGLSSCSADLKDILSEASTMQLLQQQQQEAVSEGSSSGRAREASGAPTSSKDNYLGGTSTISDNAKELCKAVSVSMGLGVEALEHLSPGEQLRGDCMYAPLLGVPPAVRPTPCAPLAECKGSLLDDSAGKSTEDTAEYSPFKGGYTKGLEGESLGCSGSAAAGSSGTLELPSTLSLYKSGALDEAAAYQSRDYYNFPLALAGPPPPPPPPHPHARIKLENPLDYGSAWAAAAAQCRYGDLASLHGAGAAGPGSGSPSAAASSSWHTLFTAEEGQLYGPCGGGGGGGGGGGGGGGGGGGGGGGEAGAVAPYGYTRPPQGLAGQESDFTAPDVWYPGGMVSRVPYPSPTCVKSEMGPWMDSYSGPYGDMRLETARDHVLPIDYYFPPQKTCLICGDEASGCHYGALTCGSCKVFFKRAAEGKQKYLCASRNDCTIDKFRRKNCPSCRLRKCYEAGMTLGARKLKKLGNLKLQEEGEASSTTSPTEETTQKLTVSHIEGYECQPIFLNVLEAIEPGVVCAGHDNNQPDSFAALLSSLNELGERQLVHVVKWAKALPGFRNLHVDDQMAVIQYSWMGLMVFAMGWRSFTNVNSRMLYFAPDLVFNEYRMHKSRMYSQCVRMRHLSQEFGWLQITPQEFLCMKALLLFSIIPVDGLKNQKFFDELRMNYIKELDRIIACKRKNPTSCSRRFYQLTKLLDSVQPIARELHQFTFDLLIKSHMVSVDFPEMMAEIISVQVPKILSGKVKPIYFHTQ
# Protocol: Cell Culture, Transfection, and Reporter Gene Assay. The human prostate cancer cell lines, LNCaP, PC-3, and DU145, and non-prostate cancer cell line COS-1 were maintained in RPMI or Dulbecco's modified Eagle's medium (DMEM) (Life Technologies) supplemented with 10% fetal bovine serum (FBS). Transfections and luciferase (Luc) assays were performed as previously described (Miyamoto, H., Yeh, S., Wilding, G. & Chang, C. (1998) Proc. Natl. Acad. Sci. USA 95, 7379-7384; Miyamoto, H., Rahman, M., Takatera, H., Kang, H.-Y., Yeh, S., Chang, H.-C., Nishimura, K., Fujimoto, N. & Chang, C. (2002) J. Biol. Chem. 277, 4609-4617). Briefly, cells seeded to reach a density of 50-60% confluence in 12 well tissue culture plates were transfected with 1.5 μg of DNA according to “SuperFect transfection” instructions (Qiagen). After 2-3 h incubation, cells were treated with medium supplemented with charcoal-stripped FBS containing either ethanol or ligands for 24 h. The cells were then harvested and whole cell extracts were used for Luc assay. The Luc activity was determined using a Dual-Luciferase Reporter Assay System (Promega) and luminometer.
# Effect of ADEK on AR Transcription. […] (set as 100%). Values were obtained from the mean±SD of at least three determinations.
# [3] = tested on: PSA; experiment: PSA expression in LNCaP cells, Western blot; type: cell-based, human; details: 48 h, 1 μM compound + 1 nM DHT
# Protocol: Western Blot. […] An antibody for -actin (Santa Cruz Biotechnology) was used as the internal control. Blots were quantitated by Collage software (Fotodyne).
# The 33-kDa protein was quantitated. β-Actin expression was used as an internal control. […] The mean±SD of three separate experiments was determined. […] Total cell number was counted by hemocytometer. The mean of at least three determinations was determined.
structure (smiles),measurement,setting,value
"CC(=O)O[C@H]1C=C[C@@]2(C)C(=CC[C@@H]3[C@@H]2CC[C@@]2(C)[C@H]3CCC23OCCO3)C1 [ADEK, 3β-acetoxy-17,17-ethylenedioxyandrosta-1,5-diene]",melting point,,105 to 106 °C
same,estrogenic activity (in words),[1],some estrogenic activity
same,repression of Adiol-induced AR transcription,[2],about 43%
same,DHT-induced PSA expression decreased to (DHT = 100%),[3],49%
